Laboratory results taken from EP0597303A2, “Cephalosporin derivatives” (priority 1992, dated 1994).
Counter-ions that a name gives are not always drawn.

How the values were obtained:
Assay in all cases: MIC, Agar (Mueller Hinton) Dilution Method
Format in all cases: cell-based
[1] = test system: Prot. mirabilis 90; settings: Proteus mirabilis; Prot. mirabilis 90; Gram Negative; read-out: MIC
Summary of the method: (§1)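 Serial dilutions of test compound in Mueller Hinton agar were inoculated with assorted Gram-positive and Gram-negative bacteria, and inhibition was expressed as MIC (micrograms/ml).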

[2] = test system: Ps. aeruginosa B; settings: Pseudomonas aeruginosa, Gram Negative
Summary of the method: as §1

[3] = test system: Escherichia coli 257; settings: Gram Negative
Summary of the method: as §1

[4] = test system: Prot. mirabilis 620A; settings: Proteus mirabilis, 620A
Summary of the method: as §1

[5] = test system: Staph. aureus 1059B; settings: Staphylococcus aureus, 1059B
Summary of the method: as §1

[6] = test system: Candida albicans 155; settings: Gram Positive and Others
Summary of the method: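 Potency against Gram-negative and Gram-positive isolates was scored as MIC in micrograms/ml, using serial agar dilution in Mueller Hinton plates.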

[7] = test system: E. coli DC-0; settings: Escherichia coli, DC0, Gram Negative
Summary of the method: as §1

[8] = test system: Xan. maltophilia 2897B; settings: Stenotrophomonas maltophilia, Gram Negative
Summary of the method: as §1

[9] = test system: Staph. aureus Evans; settings: Staphylococcus aureus; Staph. aureus Evans; Gram Positive and Others; read-out: MIC
Summary of the method: as §1

[10] = test system: Prot. vulgaris 100; settings: Proteus vulgaris, Gram Negative
Summary of the method: as §1

[11] = test system: Ps. aeruginosa 56-1B; settings: Pseudomonas aeruginosa, 561B; Ps. aeruginosa 56-1B; Gram Negative; read-out: MIC
Summary of the method: as §1

[12] = test system: E. coli 1894 E; settings: Escherichia coli; E. coli 1894 E; Gram Negative; read-out: MIC
Summary of the method: as §1

[13] = test system: E. coli DC-2; settings: Escherichia coli, DC2, Gram Negative
Summary of the method: as §1

[14] = test system: Staph. aureus 67; settings: Staphylococcus aureus; Staph. aureus 67; methicillin-resistant; Gram Positive and Others; read-out: MIC
Summary of the method: as §1

[15] = test system: Staphylococcus aureus Smith; settings: Staphylococcus aureus
Summary of the method: as §1

[16] = test system: Staph. aureus 753; settings: Staphylococcus aureus, 753
Summary of the method: as §1

[17] = test system: E. coli 2721B; settings: Escherichia coli, 2721B
Summary of the method: as §1

[18] = test system: Ps. aeruginosa 765; settings: Pseudomonas aeruginosa, Gram Negative
Summary of the method: as §1

[19] = test system: E. coli 1527E; settings: Escherichia coli, Gram Negative
Summary of the method: as §1

[20] = test system: Bacillus subtilis 558; settings: Bacillus subtilis 558; Gram Positive and Others; read-out: MIC
Summary of the method: as §1

[21] = test system: Staph. aureus ATCC 29213; settings: Staphylococcus aureus, ATCC29213
Summary of the method: as §1

[22] = test system: Staph. aureus 3037B; settings: Staphylococcus aureus, 3037B
Summary of the method: as §1

[23] = test system: Micrococcus luteus PCI; settings: Micrococcus luteus PCI; Gram Positive and Others; read-out: MIC
Summary of the method: as §1

[24] = test system: Klebsiella pneumoniae A; settings: Gram Negative
Summary of the method: as §1

[25] = test system: Staph. aureus ATCC 25923; settings: Staphylococcus aureus, ATCC25923, Gram Positive and Others
Summary of the method: as §1

[26] = test system: Staph. aureus 95; settings: Staphylococcus aureus, 95
Summary of the method: as §1

[27] = test system: Staph. aureus 82; settings: Staphylococcus aureus, 82
Summary of the method: as §1

[28] = test system: E. coli 1269B; settings: Escherichia coli, Gram Negative
Summary of the method: as §1

[29] = test system: E. coli 1573E; settings: Escherichia coli; E. coli 1573E; Gram Negative; read-out: MIC
Summary of the method: as §1

[30] = test system: Ps. cepacia 1973 B; settings: Burkholderia cepacia, Gram Negative
Summary of the method: as §1

[31] = test system: Ps. aeruginosa 18SH; settings: Pseudomonas aeruginosa, constitutive ß-lactamase producer, Gram Negative
Summary of the method: as §1

[32] = test system: Str. pneumoniae N82-012-MC; settings: Streptococcus pneumoniae, N82012MC; Str. pneumoniae N82-012-MC; Gram Positive and Others; read-out: MIC
Summary of the method: as §1

[33] = test system: Bacillus megaterium 164; settings: Priestia megaterium; Bacillus megaterium 164; Gram Positive and Others; read-out: MIC
Summary of the method: as §1

[34] = test system: Ps. aeruginosa 56M; settings: Pseudomonas aeruginosa, Gram Negative
Summary of the method: as §1

[35] = test system: Ser. marcescens 1071; settings: Serratia marcescens, 1071
Summary of the method: as §1

[36] = test system: Prov. rettgeri ATCC 9250; settings: Providencia rettgeri, ATCC9250, Gram Negative
Summary of the method: as §1

[37] = test system: E. coli 2722B; settings: Escherichia coli, Gram Negative
Summary of the method: as §1

[38] = test system: Enterobacter cloacae P99
Summary of the method: as §1

[39] = test system: E. coli 2008 E; settings: Escherichia coli; E. coli 2008 E; Gram Negative; read-out: MIC
Summary of the method: as §1

Work on N#CCC(=O)N[C@@H]1C(=O)N2C(C(=O)O)=C(COC(=O)N[C@@H]3CCN(c4c(F)cc5c(=O)c(C(=O)O)cn(C6CC6)c5c4F)C3)CS[C@H]12 [Formula Ibb, [6R-[3(R^*), 6 alpha, 7 beta]]-3-[[[[[1-(3-Carboxy-1-cyclopropyl-6,8-difluoro-1,4-dihydro-4-oxo-7-quinolinyl-3-pyrrolidinyi]amino]carbonyl]oxy]methyL]-7-[(cyanoacetyl)amino]-8-oxo-5-thia-1-azabicyclo[4.2.0]oct-2-ene-2-carboxylic acid monosodium salt] yielded an MIC [1] of 0.5 µg/mL, an MIC [2] of 1 µg/mL and an MIC [3] of 0.125 µg/mL. The MIC [4] was 0.125 µg/mL, the MIC [5] was 0.125 µg/mL and the MIC [6] was greater than 128 µg/mL. It also gave an MIC [7] of 2 µg/mL, an MIC [8] of 0.5 µg/mL and an MIC [9] of 0.0625 µg/mL. It also gave an MIC [10] of 0.0625 µg/mL, an MIC [11] of 0.5 µg/mL and an MIC [12] of 0.0625 µg/mL. It also gave an MIC [13] of 0.25 µg/mL, an MIC [14] of 0.5 µg/mL and an MIC [15] of 0.125 µg/mL. It also gave an MIC [16] of 0.125 µg/mL, an MIC [17] of 0.0313 µg/mL and an MIC [18] of 2 µg/mL. It also gave an MIC [19] of 0.0625 µg/mL, an MIC [20] of 0.0625 µg/mL and an MIC [21] of 0.125 µg/mL. For the same compound, the MIC [22] was 0.125 µg/mL, the MIC [23] was 0.0625 µg/mL and the MIC [24] was 0.25 µg/mL. For the same compound, the MIC [25] was 0.25 µg/mL, the MIC [26] was 0.125 µg/mL and the MIC [27] was 0.125 µg/mL. For the same compound, the MIC [28] was 0.0625 µg/mL, the MIC [29] was 0.0625 µg/mL and the MIC [30] was 4 µg/mL. It also gave an MIC [31] of 1 µg/mL, an MIC [32] of 0.25 µg/mL and an MIC [33] of 0.0625 µg/mL. It also gave an MIC [34] of 0.25 µg/mL, an MIC [35] of 0.125 µg/mL and an MIC [36] of 0.25 µg/mL. The MIC [37] was no more than 0.0156 µg/mL, the MIC [38] was no more than 0.0156 µg/mL and the MIC [39] was 0.0625 µg/mL.
